We go through 3 molecules from patent US8241842B2, “Methods and devices for measuring diffusion by magnetic resonance imaging” (California Institute of Technology, priority 2003, dated 2012).

The conditions of data set [1]: from mean signal ratio between chambers; one saturated with oxygen, the other with argon; fresh Bruch's membrane. The text has this:
(§1) This sample assembly is then inserted in the upper circular recess of the membrane cell base. The membrane cell washer is then placed over the sample assembly and the membrane cell cap screwed onto the base, tightening the washer onto the sample assembly. The upper central well in the membrane cell cap is then filled with inert gas (e.g. argon or nitrogen) saturated aqueous solution and sample placed in the magnetic resonance imaging system.
(§2) Sequential T1-weighted magnetic resonance images are acquired of a midline slice through the membrane cell, parallel to the long-axis of the cell.
The generalized exponential decay to equilibrium in two chamber system, including systematic drift function F(t) is given by: SA(t)=F(t)[SA(∞)+(SA(0)−SA(∞))e^−t/Tc] SB(t)=F(t)[SB(∞)+(SB(∞)−SB(0))e^−t/Tc] Taking the ration of the two signals eliminates the systematic drift allowing the time-constant for the transport across the membrane to be determined from the MRI signal time-course, as follows: […]

The conditions of data set [2]: from mean signal ratio between chambers; one saturated with oxygen, the other with argon; 0.4 μm polycarbonate film.
Source text: as §1, §2
The generalized exponential decay to equilibrium in two chamber system, including systematic drift function F(t) is given by: SA(t)=F(t)[SA(∞)+(SA(0)−SA(∞))e^−t/Tc] SB(t)=F(t)[SB(∞)+(SB(∞)−SB(0))e^−t/Tc] Taking the ration of the two signals eliminates the systematic drift allowing the time-constant for the transport across the membrane to be determined from the MRI signal time-course, as follows:
The dividing membrane was 0.4 μm pore-size polycarbonate film.

Data set [3] is described as follows: MRI of D2O/H2O exchange across a membrane in the membrane cell (Example 1A, FIG. 1). Type of data set: physicochemical. As to conditions: Water/D2O chamber signal ratio vs time, best fit exponential; one chamber initially D2O, the other H2O. The text has this: D2O gives no signal in conventional 1H MRI, and thus acts as a negative marker. The diffusional permeability can then be calculated from the signal time-course using conventional mass transport equations assuming that signal intensity is proportional to water concentration.
FIG. 1 provides the results of experiments on D2O-concentration related signal changes in two chambers, one initially containing D2O, the other with H2O.

A short description of data set [4]: MRI of D2O/H2O exchange across a membrane in the membrane cell (Example 1B, FIG. 2). The class given is physicochemical. Conditions: signal difference between chambers over 64 minutes; upper chamber deuterium oxide saline, lower water saline; 12 micron pore-size polycarbonate membrane. The text has this: A 5 mm diameter membrane tissue sample is mounted between two layers of 125 micron pore-size nylon mesh. The tissue sample assembly is then mounted in the central recess of the cell base and the cell cap is tightened onto the base using three M2.5 nylon screws. O-rings mounted into the cap and base prevent fluid leakage between the upper and lower central chambers. The central well of the base is filled with water or saline water with the cell inverted. The base well is then sealed with impermeable adhesive tape. The central well of the upper chamber is filled with deuterium oxide (D2O) or D2O saline and sealed with impermeable adhesive tape as before.
D2O gives no signal in conventional ^1H MRI, and thus acts as a negative marker. The diffusional permeability can then be calculated from either the mean signal time-courses in the upper and lower chambers using conventional mass transport equations assuming that signal intensity is proportional to water concentration.
FIG. 2 provides the results of experiments on D2O-concentration related signal changes in two chambers, one initially containing D2O, the other with H2O. Cross-sectional T1-weighted magnetic resonance image through the membrane cell during permeability testing of a single layer of 12 micron pore-size polycarbonate membrane. Images at (a) time=0 minutes and (b) 64 minutes are shown. Images were acquired every 256 seconds. […]

Data set [5] can be described thus: MRI of gadolinium chelate diffusion across a membrane (Example 3, FIG. 5). The class given is physicochemical. As to conditions: exponential fit to signal difference between chambers; upper chamber initially 1 mM gadolinium chelate, lower chamber water. Here is the method:
FIGS. 5A-5C provide the results of experiments on gadolinium chelate-concentration related signal changes in two chambers. (a) MR image of the membrane cell with the upper chamber initially containing 1 mM gadolinium chelate (Prohance® (gadoteridol), Bracco Diagnostics Inc., Princeton N.J.) and the lower chamber containing water. Signal enhancement due to the gadolinium chelate can be indicated by red false coloring. (b) the mean signal time course within the regions of interest indicated by black boxes in (a). The signal difference between the chambers has been fitted to an exponential and has a time-constant of approximately 158 minutes. The concentration time course in each chamber would require signal-concentration calibration. […] This effect would not be readily detected by non-imaging methods.
Gadolinium chelates of various molecular weights (e.g. […]) may be used as MR detectable tracers which alter the T1 relaxation time of the surrounding water and thus imparts contrast to the image. […] If the upper chamber is initially filled with a dilute aqueous solution of the chelate, and the lower chamber is filled with water, the diffusional permeability of the membrane may be estimated from the time course of either (a) the mean signal within each chamber or (b) the spatial variation of chelate above and below the membrane as determined by calibrated MR images. […]

“And” between values parts separate entries of the source, which are not always exact repeats. Equal values may be shown once. Read-outs that look alike come from different tables or passages of the source.

With `O=O` [oxygen], the time-constant in data set [1] was 67.7 min; in data set [2] it was 59.8 min and 54.9 min.

Regarding `[2H]O[2H]` [D2O, deuterium oxide], in data set [3], the “time constant for the exchange” value is “approximately 17.3 minutes”. In addition, the “time-constant of the fitted exponential decay (index of membrane permeability)” value in data set [4] was 40.7 min.

For `CC(O)CN1CCN(CC(=O)[O-])CCN(CC(=O)[O-])CCN(CC(=O)[O-])CC1.[Gd+3]` (centres unmarked) [Prohance, gadoteridol], the time-constant entry in data set [5] was “approximately 158 minutes”.
